Test system: M17-TAU P301L cells
Test: TAU cytotoxicity assay: LDH leakage of retinoic acid incubated M17-TAU P301L cells
Assay type: cell-based, human
Conditions: Homo sapiens, 168 h, reduction of LDH activity of retinoic acid incubated M17-TAU P301L cells, 7 days
Procedure, shortened: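 M17 neuroblastoma cells stably expressing human TAU P301L, seeded at 2500 cells/cm2 in Optimem with 1% FCS, then given 2.5 μM retinoic acid (stock before 1:1 addition) and grown 7 days at 37 °C. Cytotoxicity read as LDH leaked into medium; EC50 derived from these measurements.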

SMILES | EC50 [µM]
O=C(NCCc1c[nH]c2ccc(Cl)cc12)N1CCC(Cc2ccccc2)C1 (stereo not shown) [Example D75, 3-benzyl-N-(2-(5-chloro-1H-indol-3-yl)ethyl)pyrrolidine-1-carboxamide] | 0.534
O=C(NCCc1c[nH]c2ccc(Cl)cc12)N1CCC(c2ccccc2)C1 (stereo not shown) [Example D63, N-(2-(5-chloro-1H-indol-3-yl)ethyl)-3-phenylpyrrolidine-1-carboxamide] | 0.304
CCc1ccccc1N1CCC(C(=O)NCCc2c[nH]c3ccc(Cl)cc23)C1=O (stereo not shown) [Example D157, N-(2-(5-chloro-1H-indol-3-yl)ethyl)-1-(2-ethylphenyl)-2-oxopyrrolidine-3-carboxamide] | 1.21
CC(=O)c1ccc(N2CCC(C(=O)NCCc3c[nH]c4ccc(Cl)cc34)C2=O)cc1 (stereo not shown) [Example D134, 1-(4-acetylphenyl)-N-(2-(5-chloro-1H-indol-3-yl)ethyl)-2-oxopyrrolidine-3-carboxamide] | 0.086
O=C(NCCc1c[nH]c2cc(F)ccc12)c1cc(Cc2cccc(F)c2)on1 [Example D47, N-(2-(6-fluoro-1H-indol-3-yl)ethyl)-5-(3-fluorobenzyl)isoxazole-3-carboxamide] | 0.132
O=C(NCCc1c[nH]c2ccc(Cl)cc12)C1CCN(c2cccc(-n3cccc3)c2)C1=O (stereo not shown) [Example D155, 1-(3-(1H-pyrrol-1-yl)phenyl)-N-(2-(5-chloro-1H-indol-3-yl)ethyl)-2-oxopyrrolidine-3-carboxamide] | 1.37
O=C(NCCc1c[nH]c2ccc(Cl)cc12)C1CCN(c2ccc3c(c2)CCC3)C1=O (stereo not shown) [Example D145, N-(2-(5-chloro-1H-indol-3-yl)ethyl)-1-(2,3-dihydro-1H-inden-5-yl)-2-oxopyrrolidine-3-carboxamide] | 0.137
CCN(CC)Cc1cc(C(=O)NCCc2c[nH]c3ccc(Cl)cc23)no1 [Example D125, N-(2-(5-chloro-1H-indol-3-yl)ethyl)-5-((diethylamino)methyl)isoxazole-3-carboxamide] | 0.347
O=C(NCCc1c[nH]c2ccc(Cl)cc12)c1cc(-c2ccc(Cl)cc2)on1 [Example D56, N-(2-(5-chloro-1H-indol-3-yl)ethyl)-5-(4-chlorophenyl)isoxazole-3-carboxamide] | 0.19
Cc1ccc(N2CCC(C(=O)NCCc3c[nH]c4ccc(Cl)cc34)C2=O)cc1F (stereo not shown) [Example D152, N-(2-(5-chloro-1H-indol-3-yl)ethyl)-1-(3-fluoro-4-methylphenyl)-2-oxopyrrolidine-3-carboxamide] | 0.099
O=C(NCCc1c[nH]c2ccc(Cl)cc12)c1noc(Cc2ccc(F)cc2)n1 [Example D171, N-(2-(5-chloro-1H-indol-3-yl)ethyl)-5-(4-fluorobenzyl)-1,2,4-oxadiazole-3-carboxamide] | 0.032
O=C(NCCc1c[nH]c2ccc(Cl)cc12)c1noc(Cc2cccs2)n1 [Example D180, N-(2-(5-chloro-1H-indol-3-yl)ethyl)-5-(thiophen-2-ylmethyl)-1,2,4-oxadiazole-3-carboxamide] | 0.103
O=C(NCCc1c[nH]c2ccc(Cl)cc12)c1cc(Cc2cccc(C(F)(F)F)c2)on1 [Example D30, N-(2-(5-chloro-1H-indol-3-yl)ethyl)-5-(3-(trifluoromethyl)benzyl)isoxazole-3-carboxamide] | 0.042
COc1ccc2c(CCNC(=O)c3cc(Cc4cccc(F)c4)on3)c[nH]c2c1 [Example D74, 5-(3-fluorobenzyl)-N-(2-(6-methoxy-1H-indol-3-yl)ethyl)isoxazole-3-carboxamide] | 0.534
O=C(NCCc1c[nH]c2ccc(Cl)cc12)c1cc(-c2cccc3c2OCCO3)on1 [Example D38, N-(2-(5-chloro-1H-indol-3-yl)ethyl)-5-(2,3-dihydrobenzo[b][1,4]dioxin-5-yl)isoxazole-3-carboxamide] | 0.08
Cc1cccc(Cc2cc(C(=O)NCCc3c[nH]c4ccc(Cl)cc34)no2)c1 [Example D20, N-(2-(5-chloro-1H-indol-3-yl)ethyl)-5-(3-methylbenzyl)isoxazole-3-carboxamide] | 0.023
O=C(NCCc1c[nH]c2ccc(Cl)cc12)C1=NC(c2ccccc2)CO1 (stereo not shown) [Example D83, N-(2-(5-chloro-1H-indol-3-yl)ethyl)-4-phenyl-4,5-dihydrooxazole-2-carboxamide] | 0.979
O=C(NCCc1c[nH]c2ccc(Cl)cc12)c1cc(C2CC2)on1 [Example D6, N-(2-(5-chloro-1H-indol-3-yl)ethyl)-5-cyclopropylisoxazole-3-carboxamide] | 0.013
CC(c1ccccc1)N1CCC(C(=O)NCCc2c[nH]c3ccc(Cl)cc23)C1=O (single isomer, unassigned) [D156 Fraction A, N-(2-(5-chloro-1H-indol-3-yl)ethyl)-2-oxo-1-(1-phenylethyl)pyrrolidine-3-carboxamide] | 0.819
Cn1nccc1C(=O)NCCc1c[nH]c2ccc(Cl)cc12 [Example D119, N-(2-(5-chloro-1H-indol-3-yl)ethyl)-1-methyl-1H-pyrazole-5-carboxamide] | 1.03

SMILES | EC50 [µM]
CCOCC1CC(C(=O)NCCc2c[nH]c3ccc(Cl)cc23)=NO1 (stereo not shown) [Example D216, N-(2-(5-chloro-1H-indol-3-yl)ethyl)-5-(ethoxymethyl)-4,5-dihydroisoxazole-3-carboxamide] | 0.077
COc1ccc(Cc2cc(C(=O)NCCc3c[nH]c4ccc(Cl)cc34)no2)cc1 [Example D10, N-(2-(5-chloro-1H-indol-3-yl)ethyl)-5-(4-methoxybenzyl)isoxazole-3-carboxamide] | 0.017
O=C(NCCc1c[nH]c2ccc(Cl)cc12)C1CCN(c2ccc(Cl)cc2)C1=O (stereo not shown) [Example D153, N-(2-(5-chloro-1H-indol-3-yl)ethyl)-1-(4-chlorophenyl)-2-oxopyrrolidine-3-carboxamide] | 0.365
O=C(NCCc1c[nH]c2ccc(Cl)cc12)c1cc(Cc2ccccc2)on1 [Example D7, 5-benzyl-N-(2-(5-chloro-1H-indol-3-yl)ethyl)isoxazole-3-carboxamide] | 0.015
O=C(NCCc1c[nH]c2ccc(Cl)cc12)c1noc(Cc2ccccc2)n1 [Example D168, 5-benzyl-N-(2-(5-chloro-1H-indol-3-yl)ethyl)-1,2,4-oxadiazole-3-carboxamide] | 0.077
CCc1ccc(N2CCC(C(=O)NCCc3c[nH]c4ccc(C)cc34)C2=O)cc1 (stereo not shown) [Example D48, 1-(4-ethylphenyl)-N-(2-(5-methyl-1H-indol-3-yl)ethyl)-2-oxopyrrolidine-3-carboxamide] | 0.138
CC(C)(C)OC(=O)Nc1cc(C(=O)NCCc2c[nH]c3ccc(Cl)cc23)no1 [Example D29, tert-butyl 3-(2-(5-chloro-1H-indol-3-yl)ethylcarbamoyl)isoxazol-5-ylcarbamate] | 0.042
CCNCc1cc(C(=O)NCCc2c[nH]c3ccc(Cl)cc23)no1 [Example D66, N-(2-(5-chloro-1H-indol-3-yl)ethyl)-5-((ethylamino)methyl)isoxazole-3-carboxamide] | 0.327
O=C(NCCc1c[nH]c2ccc(Cl)cc12)c1cc(Cc2ccco2)on1 [Example D17, N-(2-(5-chloro-1H-indol-3-yl)ethyl)-5-(furan-2-ylmethyl)isoxazole-3-carboxamide] | 0.022
O=C(NCCc1c[nH]c2ncc(Cl)cc12)c1cc(C(=O)c2cc(F)ccc2F)on1 [Example D127, N-(2-(5-chloro-1H-pyrrolo[2,3-b]pyridin-3-yl)ethyl)-5-(2,5-difluorobenzoyl)isoxazole-3-carboxamide] | 0.436
O=C(NCCc1c[nH]c2ccc(C(F)(F)F)cc12)c1cc(Cc2cc(F)ccc2F)on1 [Example D135, 5-(2,5-difluorobenzyl)-N-(2-(5-(trifluoromethyl)-1H-indol-3-yl)ethyl)isoxazole-3-carboxamide] | 0.144
O=C(NCCc1c[nH]c2ccc(Cl)cc12)C1CCN(c2ccc(C(F)(F)F)cc2)C1=O (stereo not shown) [Example D132, N-(2-(5-chloro-1H-indol-3-yl)ethyl)-2-oxo-1-(4-(trifluoromethyl)phenyl)pyrrolidine-3-carboxamide] | 0.057
O=C(NCCc1c[nH]c2ccc(Cl)cc12)c1cc(C2CCCC2)on1 [Example D2, N-(2-(5-chloro-1H-indol-3-yl)ethyl)-5-cyclopentylisoxazole-3-carboxamide] | 0.003
Cc1onc(-c2ccccc2)c1C(=O)NCCc1c[nH]c2ccc(Cl)cc12 [Example D111, N-(2-(5-chloro-1H-indol-3-yl)ethyl)-5-methyl-3-phenylisoxazole-4-carboxamide] | 0.582
CC(C)(C)c1cc(C(=O)NCCc2c[nH]c3ccc(Cl)cc23)n(Cc2ccccc2)n1 [Example D120, 1-benzyl-3-tert-butyl-N-(2-(5-chloro-1H-indol-3-yl)ethyl)-1H-pyrazole-5-carboxamide] | 0.868
COc1ccc(-c2cc(C(=O)NCCc3c[nH]c4ccc(Cl)cc34)no2)cc1 [Example D49, N-(2-(5-chloro-1H-indol-3-yl)ethyl)-5-(4-methoxyphenyl)isoxazole-3-carboxamide] | 0.14
O=C(NCCc1c[nH]c2ccc(Cl)cc12)C1=N[C@@H](Cc2ccccc2)CO1 [Example D80, (S)-4-benzyl-N-(2-(5-chloro-1H-indol-3-yl)ethyl)-4,5-dihydrooxazole-2-carboxamide] | 0.915
O=C(NCCc1c[nH]c2ccc(Cl)cc12)c1noc(Cc2ccccc2F)n1 [Example D170, N-(2-(5-chloro-1H-indol-3-yl)ethyl)-5-(2-fluorobenzyl)-1,2,4-oxadiazole-3-carboxamide] | 0.045
COc1cccc(Cc2cc(C(=O)NCCc3c[nH]c4ccc(Cl)cc34)no2)c1 [Example D1, N-(2-(5-chloro-1H-indol-3-yl)ethyl)-5-(3-methoxybenzyl)isoxazole-3-carboxamide] | 0.002
O=C(NCCc1c[nH]c2ccc(Cl)cc12)c1noc(Cc2ccc(Cl)c(Cl)c2)n1 [Example D174, N-(2-(5-chloro-1H-indol-3-yl)ethyl)-5-(3,4-dichlorobenzyl)-1,2,4-oxadiazole-3-carboxamide] | 0.282
